Structures can show the parent of a compound that is named as a salt. Where two headings read alike, the source gives them in different places.
Experiments:
[1] = rcm bond, 12-membered ring, Grubbs II/pTsOH, DCM
[2] = rcm bond, 12-membered ring
[3] = target: purified human Factor XIa (Homo sapiens (Human), UniProt P03951); experiment: biochemical
[4] = target: purified human plasma kallikrein (Homo sapiens (Human), UniProt P03952); experiment: biochemical
[5] = from C=CC[C@H](NC(=O)OC(C)(C)C)c1cc(-c2ccccc2NC(=O)C(C=C)C(C)C)ccn1, Grubbs II (2 x 0.2 eq), microwave, DCE, 40.0 mM, […]

purified human Factor XIa, sequence (P03951 whole entry, looked up): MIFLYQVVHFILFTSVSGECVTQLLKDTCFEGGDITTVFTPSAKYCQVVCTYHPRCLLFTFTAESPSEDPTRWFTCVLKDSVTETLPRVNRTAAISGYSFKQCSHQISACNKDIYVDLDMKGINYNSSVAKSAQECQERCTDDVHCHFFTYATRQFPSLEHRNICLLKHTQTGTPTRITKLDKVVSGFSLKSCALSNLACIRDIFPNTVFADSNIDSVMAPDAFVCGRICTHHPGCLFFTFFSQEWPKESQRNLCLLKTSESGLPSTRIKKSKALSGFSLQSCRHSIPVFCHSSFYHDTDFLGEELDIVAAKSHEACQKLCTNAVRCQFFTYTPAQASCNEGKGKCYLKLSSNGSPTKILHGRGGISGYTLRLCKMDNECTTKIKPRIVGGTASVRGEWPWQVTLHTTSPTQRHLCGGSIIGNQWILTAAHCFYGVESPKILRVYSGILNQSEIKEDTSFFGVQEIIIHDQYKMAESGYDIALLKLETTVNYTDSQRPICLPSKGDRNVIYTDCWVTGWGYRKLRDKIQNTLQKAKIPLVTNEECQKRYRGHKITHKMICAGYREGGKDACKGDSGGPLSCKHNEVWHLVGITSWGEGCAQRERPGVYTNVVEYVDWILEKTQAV
purified human Factor XIa, sequence (P03951 whole entry, looked up): as above
purified human plasma kallikrein, sequence (P03952 whole entry, looked up): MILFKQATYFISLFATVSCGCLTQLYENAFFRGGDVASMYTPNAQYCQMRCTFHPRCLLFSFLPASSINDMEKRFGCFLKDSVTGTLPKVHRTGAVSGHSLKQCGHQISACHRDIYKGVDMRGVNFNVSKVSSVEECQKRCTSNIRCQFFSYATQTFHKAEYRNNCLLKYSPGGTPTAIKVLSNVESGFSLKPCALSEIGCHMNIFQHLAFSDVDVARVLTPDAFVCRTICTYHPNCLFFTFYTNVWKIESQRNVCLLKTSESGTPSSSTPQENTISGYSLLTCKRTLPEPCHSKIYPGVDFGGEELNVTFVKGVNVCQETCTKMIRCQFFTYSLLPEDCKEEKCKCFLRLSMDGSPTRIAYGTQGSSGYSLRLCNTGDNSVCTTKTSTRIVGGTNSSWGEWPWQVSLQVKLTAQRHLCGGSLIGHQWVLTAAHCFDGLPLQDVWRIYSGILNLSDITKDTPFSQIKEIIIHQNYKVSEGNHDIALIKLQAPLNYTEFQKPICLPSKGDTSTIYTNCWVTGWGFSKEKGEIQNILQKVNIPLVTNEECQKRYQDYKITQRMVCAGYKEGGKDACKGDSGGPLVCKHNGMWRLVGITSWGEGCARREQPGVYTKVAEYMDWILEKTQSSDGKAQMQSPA
purified human plasma kallikrein, sequence (P03952 whole entry, looked up): as above

Molecule: tert-butyl N-[(10R,11Z,14S)-17-methoxy-5-[(methoxycarbonyl)amino]-10-methyl-9-oxo-8,16-diazatricyclo[13.3.1.0^2,7]nonadeca-1(19),2,4,6,11,15,17-heptaen-14-yl]carbamate and tert-butyl N-[(10R,11E,14S)-17-methoxy-5-[(methoxycarbonyl)amino]-10-methyl-9-oxo-8,16-diazatricyclo[13.3.1.0^2,7]nonadeca-1(19),2,4,6,11,15,17-heptaen-14-yl]carbamate as a Mixture
- ring closure, yield after HPLC ([1]; 8.5 mM): 29%

Molecule: COC(=O)Nc1ccc2c(c1)NC(=O)[C@H](C)/C=C/C[C@H](NC(=O)OC(C)(C)C)c1nc-2cn1COCC[Si](C)(C)C
- ring closure, isolated yield ([2]; from C=CC[C@H](NC(=O)OC(C)(C)C)c1nc(-c2ccc(NC(=O)OC)cc2NC(=O)[C@H](C)C=C)cn1COCC[Si](C)(C)C, Grubbs II (0.4 eq)/pTsOH, DCM, 10.0 mM, 40.0 °C, 21.5 h): 40.7%

Molecule: COC(=O)Nc1ccc2c(c1)C(=O)NC/C=C/C[C@H](NC(=O)OC(C)(C)C)c1cc-2ccn1
- ring closure, yield after HPLC ([1]; from C=CCNC(=O)c1cc(NC(=O)OC)ccc1-c1ccnc([C@H](CC=C)NC(=O)OC(C)(C)C)c1, […], 3.0 h): 39.4%

Molecule: C[C@@H]1/C=C/C[C@H](NC(=O)OC(C)(C)C)c2cc(ccn2)-c2ccccc2NC1=O
- ring closure, isolated yield ([2]; from C=CC[C@H](NC(=O)OC(C)(C)C)c1cc(-c2ccccc2NC(=O)[C@H](C)C=C)ccn1, Grubbs II/pTsOH, DCM, 11.8 mM, 40.0 °C, 4.5 h): 78%

Molecule: C[C@@H]1CCC[C@H](N2CCC(c3c(F)ccc(Cl)c3F)=CC2=O)c2cc(ccn2)-c2ccncc2NC1=O [Example 72, (10R,14S)-14-[4-(3-Chloro-2,6-difluorophenyl)-6-oxo-1,2,3,6-tetrahydropyridin-1-yl]-10-methyl-5,8,16-triazatricyclo[13.3.1.0^2,7]nonadeca-1(19),2(7),3,5,15,17-hexaen-9-one, TFA Salt]
- Ki [3]: 8.67 nM
- Ki [4]: 19 nM

Molecule: CC(C)[C@@H]1/C=C/C[C@H](NC(=O)OC(C)(C)C)c2cc(ccn2)-c2ccccc2NC1=O
- ring closure, isolated yield [2, 5]: 10.2%

Molecule: CC(C)[C@H]1/C=C/C[C@H](NC(=O)OC(C)(C)C)c2cc(ccn2)-c2ccccc2NC1=O
- ring closure, isolated yield [2, 5]: 8.9%

Molecule: COC(=O)c1ccc2c(c1)-c1cccc(c1)[C@@H](N1CC=C(c3c(F)ccc(Cl)c3F)CC1=O)CCC[C@@H](C)C(=O)N2 [Example 174, Methyl (10R,14S)-14-[4-(3-chloro-2,6-difluorophenyl)-2-oxo-1,2,3,6-tetrahydropyridin-1-yl]-10-methyl-9-oxo-8-azatricyclo[13.3.1.0^2,7]nonadeca-1(19),2,4,6,15,17-hexaene-4-carboxylate]
- Ki [3]: > 625 nM

Molecule: COC(=O)c1ccc2c(c1)-c1cccc(c1)[C@@H](N1CC=C(c3c(Br)ccc(Cl)c3F)CC1=O)CCC[C@@H](C)C(=O)N2 [Example 176, Methyl (10R,14S)-14-[4-(6-bromo-3-chloro-2-fluorophenyl)-2-oxo-1,2,3,6-tetrahydropyridin-1-yl]-10-methyl-9-oxo-8-azatricyclo[13.3.1.0^2,7]nonadeca-1(19),2,4,6,15,17-hexaene-4-carboxylate]
- Ki [3]: > 625 nM
